13 compounds from paper PMC9516332 (Frontiers in Oncology, 2022) can be followed below.

Molecules are shown by their SMILES. Where two headings read alike, the source gives them in different places.

What all share (experiment): Kinase panel profiling at 1 µmol/L (MSA or IMAP), percentage inhibition
What all share (format): biochemical

Experiment [1] has as its target T1, panel of 255 wild-type kinases (Homo sapiens, UniProt Q96PF2).
T1 sequence (Q96PF2 1-358): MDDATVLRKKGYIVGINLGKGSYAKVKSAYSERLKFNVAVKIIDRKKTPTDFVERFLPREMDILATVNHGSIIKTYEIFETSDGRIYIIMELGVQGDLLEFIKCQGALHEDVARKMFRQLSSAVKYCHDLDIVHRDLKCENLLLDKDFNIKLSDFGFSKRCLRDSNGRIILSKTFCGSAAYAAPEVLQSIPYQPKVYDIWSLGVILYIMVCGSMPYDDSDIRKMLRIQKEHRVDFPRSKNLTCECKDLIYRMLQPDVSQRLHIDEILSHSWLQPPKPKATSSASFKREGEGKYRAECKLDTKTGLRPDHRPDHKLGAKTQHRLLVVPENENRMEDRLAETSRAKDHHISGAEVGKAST
The following applies: read-out: %-inhibition at 1 µmol/L, TSSK2.

The target of experiment [2] is panel of 255 wild-type kinases (Homo sapiens, UniProt Q16539). The following applies: read-out: %-inhibition, p38α.
For experiment [3], the target named is panel of 255 wild-type kinases (Homo sapiens, UniProt Q9HBH9). The following applies: read-out: %-inhibition, MNK2.
Experiment [4] has as its target T2, panel of 255 wild-type kinases (Homo sapiens, UniProt Q8TF76).
T2 sequence (Q8TF76 1-798): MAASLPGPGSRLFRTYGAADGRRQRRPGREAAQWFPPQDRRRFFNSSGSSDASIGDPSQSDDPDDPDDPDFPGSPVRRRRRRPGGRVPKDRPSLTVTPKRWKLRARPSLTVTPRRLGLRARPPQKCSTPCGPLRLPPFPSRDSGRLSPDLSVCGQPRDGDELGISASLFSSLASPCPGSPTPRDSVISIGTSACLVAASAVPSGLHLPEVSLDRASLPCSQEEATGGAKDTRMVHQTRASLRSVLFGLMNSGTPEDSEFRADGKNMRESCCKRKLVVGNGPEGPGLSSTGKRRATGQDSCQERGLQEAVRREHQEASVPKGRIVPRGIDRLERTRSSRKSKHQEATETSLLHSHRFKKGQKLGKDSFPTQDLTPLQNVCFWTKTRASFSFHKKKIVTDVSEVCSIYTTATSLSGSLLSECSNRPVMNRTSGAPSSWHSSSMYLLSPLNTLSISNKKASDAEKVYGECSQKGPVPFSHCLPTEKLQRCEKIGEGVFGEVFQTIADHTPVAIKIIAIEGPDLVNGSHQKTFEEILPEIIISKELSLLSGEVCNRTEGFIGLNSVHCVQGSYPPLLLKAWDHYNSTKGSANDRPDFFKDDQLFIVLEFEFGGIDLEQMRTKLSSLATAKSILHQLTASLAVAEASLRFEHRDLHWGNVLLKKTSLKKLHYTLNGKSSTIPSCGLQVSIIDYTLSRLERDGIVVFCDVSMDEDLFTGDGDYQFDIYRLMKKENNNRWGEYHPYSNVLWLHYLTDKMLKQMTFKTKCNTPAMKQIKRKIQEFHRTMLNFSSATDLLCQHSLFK
The following applies: read-out: %-inhibition at 1 µmol/L, Haspin.

Experiment [5] has as its target T3, panel of 255 wild-type kinases (Homo sapiens, UniProt Q96PN8).
T3 sequence (Q96PN8 1-268): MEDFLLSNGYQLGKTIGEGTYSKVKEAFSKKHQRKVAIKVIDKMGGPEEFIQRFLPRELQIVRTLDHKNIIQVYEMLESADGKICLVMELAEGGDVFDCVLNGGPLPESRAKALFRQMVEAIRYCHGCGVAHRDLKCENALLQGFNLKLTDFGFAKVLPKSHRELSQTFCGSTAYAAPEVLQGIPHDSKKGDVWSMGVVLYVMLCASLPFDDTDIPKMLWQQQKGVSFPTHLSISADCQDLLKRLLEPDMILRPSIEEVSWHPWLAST
Particulars: read-out: %-inhibition at 1 µmol/L, TSSK3.

Experiment [6] addresses panel of 255 wild-type kinases (Homo sapiens, UniProt P11802). The following applies: read-out: %-inhibition CDK4/CycD3.
Experiment [7] deals with panel of 255 wild-type kinases (Homo sapiens, UniProt P78362). The following applies: read-out: %-inhibition at 1 µmol/L, SRPK2.
For experiment [8], the target named is panel of 255 wild-type kinases (Homo sapiens, UniProt Q8N568). Particulars: read-out: %-inhibition at 1 µmol/L, DCAMKL2.
Experiment [9] concerns the target panel of 255 wild-type kinases (Homo sapiens, UniProt Q9UM73). The following applies: read-out: %-inhibition ALK.
Where [10] appears, read: kinase TSSK2, 1 µmol/L single concentration.
Where [11] appears, read: p38α, 1 µmol/L single concentration.
Where [12] appears, read: MNK2, 1 µmol/L single concentration.
The mark [13] stands for this setting: kinase Haspin, 1 µmol/L single concentration.
The mark [14] stands for this setting: kinase TSSK3, 1 µmol/L single concentration.
[15] abbreviates: CDK4/CycD3 kinase assay, 1 µmol/L single concentration.
The mark [16] stands for this setting: kinase SRPK2, 1 µmol/L single concentration.
[17] abbreviates: kinase DCAMKL2, 1 µmol/L single concentration.
Setting [18] is: ALK kinase assay, 1 µmol/L single concentration.

Turning to `Cc1nc(NC(=O)N2CCC[C@H]2C(N)=O)sc1-c1ccnc(C(C)(C)C(F)(F)F)c1` [alpelisib], the inhibition at 1 µM is -6% in experiment [1] (setting [10]); 2.59% in [2] (setting [11]); 8% in experiment [3] (setting [12]); -4% in [4] (setting [13]); 0.673% in experiment [5] (setting [14]); -10% in experiment [6] (setting [15]). The inhibition at 1 µM was -1.61% in [7] (setting [16]), 6.52% in experiment [8] (setting [17]) and 1.84% in [9] (setting [18]).

`Cn1cc(-c2cc3c(N4CCN(c5ncc([C@@](C)(N)c6ccc(F)cc6)cn5)CC4)ncnn3c2)cn1` [avapritinib]: the inhibition at 1 µM is 1.35% in experiment [1] (setting [10]); 0.843% in [2] (setting [11]); 29% in experiment [3] (setting [12]); 59% in experiment [4] (setting [13]); -4% in experiment [5] (setting [14]); 9% in experiment [6] (setting [15]). For the same compound, the inhibition at 1 µM is -0.951% in [7] (setting [16]), 3.65% in experiment [8] (setting [17]) and 35% in experiment [9] (setting [18]).

As for `Cn1cnc2c(F)c(Nc3ccc(Br)cc3F)c(C(=O)NOCCO)cc21` [binimetinib], the inhibition at 1 µM in experiment [1] (setting [10]) was -5%; in [2] (setting [11]) it was -8%; in [3] (setting [12]), -13%; in [4] (setting [13]), -15%; in experiment [5] (setting [14]) it was 2.62%; in experiment [6] (setting [15]), 3.25%. Further, the inhibition at 1 µM in experiment [7] (setting [16]) is -1.4%; in [8] (setting [17]), -13%; in experiment [9] (setting [18]) it was 6.37%.

On to `CNC(=O)c1ccc(-c2cnc3ncc(Cc4ccc5ncccc5c4)n3n2)cc1F` [capmatinib], for which the inhibition at 1 µM in experiment [1] is -3.31%; in experiment [2], 3.37%; in [3], -4%; in experiment [4], 37%; in experiment [5], -7%; in experiment [6], -3.55%. The inhibition at 1 µM is -9% in experiment [7], -1.61% in [8] and 28% in [9].

Take `COc1cc2ncnc(Nc3ccc(F)c(Cl)c3)c2cc1NC(=O)/C=C/CN1CCCCC1` [dacomitinib]: the inhibition at 1 µM in experiment [1] (setting [10]) is 1.2%; in experiment [2] (setting [11]) it was 39%; in experiment [3] (setting [12]), 76%; in experiment [4] (setting [13]) it was 13%; in [5] (setting [14]), 3%; in experiment [6] (setting [15]) it was -0.81%. Further, the inhibition at 1 µM in experiment [7] (setting [16]) worked out at 0.863%; in [8] (setting [17]) it was 1.42%; in experiment [9] (setting [18]) it was 17%.

Turning to `C[C@H](Nc1ncnc2nc[nH]c12)c1cc2cccc(Cl)c2c(=O)n1-c1ccccc1` [duvelisib], the inhibition at 1 µM in experiment [1] (setting [10]) is -1.37%; in [2] (setting [11]), 5%; in [3] (setting [12]), 7%; in [4] (setting [13]), 2%; in experiment [5] (setting [14]), 3%; in [6] (setting [15]), -10%. The inhibition at 1 µM in experiment [7] (setting [16]) was -0.863%; in experiment [8] (setting [17]), 7.51%; in [9] (setting [18]), 3.74%.

On to `COC(=O)N[C@@H](C)CNc1nccc(-c2cn(C(C)C)nc2-c2cc(Cl)cc(NS(C)(=O)=O)c2F)n1` [encorafenib], for which the inhibition at 1 µM in experiment [1] (setting [10]) was -2.44%; in [2] (setting [11]), 35%; in experiment [3] (setting [12]), -3.42%; in experiment [4] (setting [13]), -5%; in [5] (setting [14]) it was 4%; in experiment [6] (setting [15]), 10%. The inhibition at 1 µM was 2% in experiment [7] (setting [16]), -12% in experiment [8] (setting [17]) and 8% in [9] (setting [18]).

For the compound `CN1CCN(c2ccc(C(=O)Nc3n[nH]c4ccc(Cc5cc(F)cc(F)c5)cc34)c(NC3CCOCC3)c2)CC1` [entrectinib], the inhibition at 1 µM in [1] (setting [10]) was -7%; in [2] (setting [11]) it was 7%; in experiment [3] (setting [12]), 0.904%; in experiment [4] (setting [13]), -2.24%; in [5] (setting [14]) it was 5.68%; in [6] (setting [15]), -7.43%. Moreover, the inhibition at 1 µM in [7] (setting [16]) amounted to 21%; in [8] (setting [17]), 16%; in experiment [9] (setting [18]), 100%.

For the compound `CCc1nc(C(N)=O)c(Nc2ccc(N3CCC(N4CCN(C)CC4)CC3)c(OC)c2)nc1NC1CCOCC1` [gilteritinib], the inhibition at 1 µM in experiment [1] (setting [10]) was 55%; in experiment [2] (setting [11]), 4%; in experiment [3] (setting [12]), 89%; in experiment [4] (setting [13]), 35%; in experiment [5] (setting [14]), 11%; in experiment [6] (setting [15]), 46%. Moreover, the inhibition at 1 µM in experiment [7] (setting [16]) worked out at 12%; in experiment [8] (setting [17]), 11%; in experiment [9] (setting [18]), 101%.

With `CCN1CCN(c2ccc(Nc3cc(N(C)C(=O)Nc4c(Cl)c(OC)cc(OC)c4Cl)ncn3)cc2)CC1` [infigratinib], the inhibition at 1 µM was -3.74% in experiment [1] (setting [10]); 4.45% in [2] (setting [11]); -1.83% in [3] (setting [12]); -1.4% in experiment [4] (setting [13]); -1.43% in [5] (setting [14]); 66% in experiment [6] (setting [15]). The inhibition at 1 µM in experiment [7] (setting [16]) is -5.51%; in experiment [8] (setting [17]), 4.25%; in experiment [9] (setting [18]), 43%.

As to `O=C(Nc1cnn2ccc(N3CCC[C@@H]3c3cc(F)ccc3F)nc12)N1CC[C@H](O)C1` [larotrectinib], the inhibition at 1 µM in [1] (setting [10]) was -0.476%; in [2] (setting [11]) it was -1.34%; in [3] (setting [12]) it was -8.51%; in experiment [4] (setting [13]) it was -4.46%; in experiment [5] (setting [14]) it was 0.55%; in [6] (setting [15]), -0.745%. For the same compound, the inhibition at 1 µM is -3% in experiment [7] (setting [16]), 0.701% in [8] (setting [17]) and 7% in experiment [9] (setting [18]).

In the case of `C[C@H]1Oc2cc(cnc2N)-c2c(nn(C)c2C#N)CN(C)C(=O)c2ccc(F)cc21` [lorlatinib], the inhibition at 1 µM is 56% in experiment [1] (setting [10]); 6% in [2] (setting [11]); 13% in [3] (setting [12]); 0.865% in experiment [4] (setting [13]); 3.55% in experiment [5] (setting [14]); -7% in experiment [6] (setting [15]). Moreover, the values for the inhibition at 1 µM in experiment [7] (setting [16]) and in [8] (setting [17]) were 4% and 74%, respectively.

Turning to `Cn1cnc2c(F)c(Nc3ccc(Br)cc3Cl)c(C(=O)NOCCO)cc21` [selumetinib], the inhibition at 1 µM is -4.25% in experiment [1] (setting [10]); 3.34% in [2] (setting [11]); -0.47% in experiment [3] (setting [12]); 3.64% in experiment [4] (setting [13]); -3% in [5] (setting [14]); -1.85% in [6] (setting [15]). For the same compound, the inhibition at 1 µM in experiment [7] (setting [16]) is -2.61%; in [8] (setting [17]), 0.902%.
